Measurements from patent publication US20090093469A1, “Phenylaminopropanol Derivatives and Methods of Their Use” (WYETH, priority 2004, published 2009).
Structures can show the parent of a compound that is named as a salt.

target: T1, hNET (Homo sapiens, UniProt P23975); assay: Norepinephrine (NE) uptake assay in MDCK-Net6 cells stably transfected with human hNET; assay type: cell-based; details: MDCK-Net6, read-out: % Inhibition @ 1 μM (hNET)
T1 construct: expressed in transfected cells
Method: Cells were plated at 300,000/T75 flask and cells were split twice weekly. […] Cells were plated at 250,000 cells/T75 flask and split twice weekly.
On day 1, cells were plated at 3,000 cells/well in growth medium and maintained in a cell incubator (37° C., 5% CO2). On day 2, growth medium was replaced with 200 μl of assay buffer (25 mM HEPES; 120 mM NaCl; 5 mM KCl; 2.5 mM CaCl2; 1.2 mM MgSO4; 2 mg/ml glucose (pH 7.4, 37° C.)) containing 0.2 mg/ml ascorbic acid and 10 μM pargyline. Plates containing cells with 200 μl of assay buffer were equilibrated for 10 minutes at 37° C. prior to addition of compounds. A stock solution of desipramine was prepared in DMSO (10 mM) and delivered to triplicate wells containing cells for a final test concentration of 1 μM. Data from these wells were used to define non-specific NE uptake (minimum NE uptake). Test compounds were prepared in DMSO (10 mM) and diluted in assay buffer according to test range (1 to 10,000 nM). Twenty-five microliters of assay buffer (maximum NE uptake) or test compound were added directly to triplicate wells containing cells in 200 μl of assay buffer. The cells in assay buffer with test compounds were incubated for 20 minutes at 37° C. To initiate the NE uptake, [^3H]NE diluted in assay buffer (120 nM final assay concentration) was delivered in 25 μl aliquots to each well and the plates were incubated for 5 minutes (37° C.). The reaction was terminated by decanting the supernatant from the plate. The plates containing cells were washed twice with 200 μl assay buffer (37° C.) to remove free radioligand. The plates were then inverted, left to dry for 2 minutes, then reinverted and air-dried for an additional 10 minutes. The cells were lysed in 25 μl of 0.25 N NaOH solution (4° C.), placed on a shake table and vigorously shaken for 5 minutes. After cell lysis, 75 μl of scintillation cocktail was added to each well and the plates were sealed with film tape. The plates were returned to the shake table and vigorously shaken for a minimum of 10 minutes to ensure adequate partitioning of organic and aqueous solutions. The plates were counted in a Wallac Microbeta counter (PerkinElmer) to collect the raw cpm data.
For each experiment, a data stream of cpm values collected from the Wallac Microbeta counter was downloaded to a Microsoft Excel statistical application program. Calculations of EC50 values were made using the transformed-both-sides logistic dose response program written by Wyeth Biometrics Department.

T1 sequence (P23975 whole entry): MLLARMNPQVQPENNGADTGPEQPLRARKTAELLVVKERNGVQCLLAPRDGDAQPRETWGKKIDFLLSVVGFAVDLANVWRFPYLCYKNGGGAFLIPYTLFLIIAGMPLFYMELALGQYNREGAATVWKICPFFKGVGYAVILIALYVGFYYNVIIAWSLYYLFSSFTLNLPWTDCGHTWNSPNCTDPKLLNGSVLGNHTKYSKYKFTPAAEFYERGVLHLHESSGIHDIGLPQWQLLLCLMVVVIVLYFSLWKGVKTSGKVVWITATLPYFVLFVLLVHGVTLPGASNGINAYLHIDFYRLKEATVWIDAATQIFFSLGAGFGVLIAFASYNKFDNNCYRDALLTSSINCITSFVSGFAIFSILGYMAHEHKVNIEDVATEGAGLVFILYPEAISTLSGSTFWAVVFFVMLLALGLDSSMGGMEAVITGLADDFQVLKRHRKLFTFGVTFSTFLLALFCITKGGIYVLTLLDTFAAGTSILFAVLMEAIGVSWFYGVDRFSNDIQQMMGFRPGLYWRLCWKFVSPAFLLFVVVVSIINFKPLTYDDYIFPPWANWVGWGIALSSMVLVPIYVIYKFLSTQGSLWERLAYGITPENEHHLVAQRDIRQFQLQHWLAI

Row | Compound | inhibition at 1 µM [%]
1 | CCCn1c(=O)n([C@@H](c2ccccc2)[C@H](O)CNC)c2ccccc21 [Example 193, 1-[(1S,2R)-2-hydroxy-3-(methylamino)-1-phenylpropyl]-3-propyl-1,3-dihydro-2H-benzimidazol-2-one hydrochloride] | 98.4
2 | CNC[C@@H](O)[C@H](c1ccccc1)n1c(=O)n(C(C)C)c2ccccc21 [Example 203, 1-[(1S,2R)-2-hydroxy-3-(methylamino)-1-phenylpropyl]-3-isopropyl-1,3-dihydro-2H-benzimidazol-2-one hydrochloride] | 98.9
3 | CCCn1c(=O)n([C@@H](c2ccccc2)[C@H](O)CNC)c2cc(F)ccc21 [Example 198, 5-fluoro-3-[(1S,2R)-2-hydroxy-3-(methylamino)-1-phenylpropyl]-1-propyl-1,3-dihydro-2H-benzimidazol-2-one hydrochloride] | 97.7
4 | CNCC(O)[C@H](c1ccccc1)n1ccc2ccccc21 (stereo in doubt) [Example 23, (1S,2R)-1-(1H-indol-1-yl)-3-(methylamino)-1-phenylpropan-2-ol hydrochloride] | 89.7
5 | CNC[C@H](O)[C@@H](c1ccccc1)n1ccc2ccccc21 (racemic) [Example 11, (1RS,2SR)-1-(1H-indol-1-yl)-3-(methylamino)-1-phenylpropan-2-ol hydrochloride] | 94.5
6 | CCn1c(=O)n([C@@H](c2cccc(F)c2)[C@H](O)CNC)c2c(F)cccc21 [Example 209, 1-Ethyl-4-fluoro-3-[(1S,2R)-2-hydroxy-3-(methylamino)-1-(3-fluorophenyl)-propyl]-1,3-dihydro-2H-benzimidazol-2-one hydrochloride] | 99.3
7 | CNC[C@@H](O)[C@@H](c1ccccc1)n1ccc2ccccc21 (racemic) [Example 16, (1RS,2RS)-1-(1H-indol-1-yl)-3-(methylamino)-1-phenylpropan-2-ol hydrochloride] | 96.8
8 | CNC[C@@H](O)[C@H](c1cccc(F)c1)n1ccc2ccc(Br)cc21 [Example 132, (1S,2R)-1-(6-bromo-1H-indol-1-yl)-1-(3-fluorophenyl)-3-(methylamino)propan-2-ol hydrochloride] | 93
9 | CNC[C@H](O)[C@@H](c1ccccc1)n1ccc2cc(F)ccc21 (racemic) [Example 20, (1RS,2SR)-1-(5-fluoro-1H-indol-1-yl)-3-(methylamino)-1-phenylpropan-2-ol hydrochloride] | 85
10 | CNC[C@@H](O)[C@H](c1cccc(F)c1)n1ccc2c(Cl)cccc21 [Example 150, (1S,2R)-1-(4-chloro-1H-indol-1-yl)-1-(3-fluorophenyl)-3-(methylamino)propan-2-ol hydrochloride] | 98.3
11 | CCNC[C@@H](O)[C@H](c1ccccc1)n1c(=O)n(C(C)C)c2ccc(F)cc21 [Example 204, 3-[(1S,2R)-3-(ethylamino)-2-hydroxy-1-phenylpropyl]-5-fluoro-1-isopropyl-1,3-dihydro-2H-benzimidazol-2-one hydrochloride] | 47.4
12 | CNC[C@@H](O)[C@H](c1ccc(F)cc1)n1ccc2ccccc21 [Example 51, (1S,2R)-1-(4-fluorophenyl)-1-(1H-indol-1-yl)-3-(methylamino)propan-2-ol hydrochloride] | 87
13 | CNC[C@@H](O)[C@H](c1cccc(F)c1)n1ccc2cc(F)ccc21 [Example 85, (1S,2R)-1-(5-fluoro-1H-indol-1-yl)-1-(3-fluorophenyl)-3-(methyl-amino)propan-2-ol hydrochloride] | 97.4
14 | CNC[C@@H](O)[C@H](c1ccccc1F)n1ccc2ccccc21 [Example 50, (1S,2R)-1-(2-fluorophenyl)-1-(1H-indol-1-yl)-3-(methylamino)propan-2-ol hydrochloride] | 91.8
15 | CNC[C@@H](O)[C@H](c1cccc(C(F)(F)F)c1)n1ccc2ccccc21 [Example 136, (1S,2R)-1-(1H-indol-1-yl)-3-(methylamino)-1-[3-(trifluoromethyl)phenyl]propan-2-ol hydrochloride] | 97

same assay, conditions: test compound 1 μM; [3H]NE uptake, MDCK-Net6 cells; read-out: % Inhibition @ 1 μM (hNET)

Row | inhibition at 1 µM [%] | Compound
16 | 99.6 | CNC[C@@H](O)[C@H](c1cccc(F)c1)n1cc(-c2ccccc2C(F)(F)F)c2ccccc21 [Example 175, (1S,2R)-1-(3-fluorophenyl)-3-(methylamino)-1-{3-[2-(trifluoromethyl)phenyl]-1H-indol-1-yl}propan-2-ol hydrochloride]
17 | 63.1 | CNC[C@@H](O)[C@H](c1cccc(F)c1)n1ccc2c(C#N)cccc21 [Example 131, 1-[(1S,2R)-1-(3-fluorophenyl)-2-hydroxy-3-(methylamino)propyl]-1H-indole-4-carbonitrile hydrochloride]
18 | 68.5 | NC[C@@H](O)[C@H](c1cccc(F)c1)n1ccc2ccccc21 [Example 134, (1S,2R)-3-amino-1-(3-fluorophenyl)-1-(1H-indol-1-yl)propan-2-ol hydrochloride]
19 | 71.6 | CNC[C@@H](O)[C@H](c1ccccc1)n1ccc2cc(C(F)(F)F)ccc21 [Example 188, (1S,2R)-3-(methylamino)-1-phenyl-1-[5-(trifluoromethyl)-1H-indol-1-yl]propan-2-ol hydrochloride]
20 | 79 | CNC[C@@H](O)[C@H](c1ccccc1)N1C(=O)C(C)(C)c2cc(Br)ccc21 [Example 194, 5-bromo-1-[(1S,2R)-2-hydroxy-3-(methylamino)-1-phenylpropyl]-3,3-dimethyl-1,3-dihydro-2H-indol-2-one hydrochloride]
21 | 88 | CNC[C@@H](O)[C@H](c1cccc(F)c1)n1cc(-c2cccc(OC)c2)c2ccccc21 [Example 172, (1S,2R)-1-(3-fluorophenyl)-1-[3-(3-methoxyphenyl)-1H-indol-1-yl]-3-(methylamino)propan-2-ol hydrochloride]
22 | 96.9 | CNC[C@@H](O)[C@H](c1ccccc1)n1ccc2cccc(F)c21 [Example 181, (1S,2R)-1-(7-fluoro-1H-indol-1-yl)-3-(methylamino)-1-phenylpropan-2-ol hydrochloride]
23 | 94.7 | CNC[C@@H](O)[C@H](c1ccccc1)N1C(=O)C2(CC2)c2ccccc21 [Example 109, 1′-[(1S,2R)-2-hydroxy-3-(methylamino)-1-phenylpropyl]spiro-[cyclopropane-1,3′-indol]-2′(1′H)-one hydrochloride]
24 | 11.3 | CCNC[C@H](O)[C@@H](c1ccccc1)n1ccc2cc(F)ccc21 (racemic) [Example 18, (1RS,2SR)-3-(ethylamino)-1-(5-fluoro-1H-indol-1-yl)-1-phenylpropan-2-ol hydrochloride]
25 | 97.4 | CNC[C@@H](O)[C@H](c1ccccc1)n1cc(C)c2cccc(Cl)c21 [Example 122, (1S,2R)-1-(7-chloro-3-methyl-1H-indol-1-yl)-3-(methylamino)-1-phenylpropan-2-ol hydrochloride]
26 | 91 | CNC[C@@H](O)[C@H](c1ccccc1)N1C(=O)C(C)(C)c2ccc(F)cc21 [Example 195, 6-fluoro-1-[(1S,2R)-2-hydroxy-3-(methylamino)-1-phenylpropyl]-3,3-dimethyl-1,3-dihydro-2H-indol-2-one hydrochloride]
27 | 21.2 | CNC[C@@H](OC)[C@H](c1ccccc1)n1cc(C)c2cc(Cl)ccc21 [Example 121, [(2R,3S)-3-(5-chloro-3-methyl-1H-indol-1-yl)-2-methoxy-3-phenylpropyl]methylamine]
28 | 99.6 | CNC[C@@H](O)[C@H](c1cc(F)cc(F)c1)n1ccc2ccccc21 [Example 157, (1S,2R)-1-(3,5-difluorophenyl)-1-(1H-indol-1-yl)-3-(methylamino)propan-2-ol hydrochloride]
29 | 65 | CNC[C@@H](OC)[C@H](c1ccccc1)n1cc(C)c2cc(F)ccc21 [Example 123, [(2R,3S)-3-(5-fluoro-3-methyl-1H-indol-1-yl)-2-methoxy-3-phenylpropyl]methylamine hydrochloride]
30 | 67 | CNC[C@@H](O)[C@H](c1ccccc1)n1ccc2c(OC)cccc21 (racemic) [Example 74, (1RS,2SR)-1-(4-methoxy-1H-indol-1-yl)-3-(methylamino)-1-phenyl propan-2-ol hydrochloride]
